One molecule from article PMC10935062 (Acta Pharmaceutica Sinica. B, 2023) can be followed below.

The nature of this series: Water solubility. The series is classed as physicochemical.

The structures appear in SMILES notation.

With `NC(=O)c1ccc(C(=O)NOCc2ccc(Sc3ccc(N)cc3)c(C(F)(F)F)c2)cc1` [compound 11p], the water solubility entry is recorded as “superior water solubility”.
